Source: patent publication US7531502B2, “Diagnostic conjugate useful for intracellular imaging and for differentiating between tumor- and non-tumor cells” (Deutsches Krebsforschungszentrum Stiftung Des Offentlichen …, priority 2002, dated 2009)

Test system: HeLa cervix carcinoma cells
Type: cell-based, human
Description: (a) Kinetic Studies: HeLa-cell-Uptake of the Gd-complex-transporter [without Address-sequence or with Either Antisense (ACGT)- or Random-sequence (RCGT)] Compared to Magnevist®. Living HeLa-cells were harvested and divided into tubes (Falcon) (Cell No.: 20×10^6 cells per tube). The Gd-complex-transporter without address-sequence and the Magnevist® were each dissolved in MEM culture medium in a concentration of 100 pM and were then incubated for 10, 20, 30 and 60 minutes. […] T1 and T2 relaxation-times within the pellets of both tubes were measured to evaluate the intracellular relaxivity of the respective contrast agents (R=1/T1). The T1-relaxation time was measured by means of an inversion-recovery-sequence (TR: 5000 ms/TE: 76 ms/TI: 25-4000 ms, 15 different TI-values, scan-time 15×25 sec, FOV: 160 mm×160 mm, Matrix: 132×256, slice thickness: 7 mm, pixel size: 1.21×0.63 mm). T2 relaxation-time was measured by a multi-echo-sequence (TR: 5000 ms/16 TE-values: 30 ms−245 ms, FOV: 250 mm×250 mm, Matrix: 256×256, slice thickness: 5 mm, pixel size: 0.98×0.98 mm, scan time: 21 min 21 sec). […] This procedure was repeated hourly until no signal increase compared to the control tube (HeLa cells or lymphocytes in MEM medium without contrast agent) could be detected in T1 weighted sequences.

## CNC[C@H](O)[C@@H](O)[C@H](O)[C@H](O)CO.CNC[C@H](O)[C@@H](O)[C@H](O)[C@H](O)CO.O=C([O-])CN(CCN(CC(=O)[O-])CC(=O)O)CCN(CC(=O)[O-])CC(=O)O.[Gd+3] [Magnevist®, reference compound]
HeLa cells, 100 pM, 1 hour incubation
  MR signal change compared with HeLa cells incubated solely in MEM: no signal change
HeLa-cell pellets after incubation, inversion-recovery T1 measurement
  relaxivity R (R=1/T1) within the HeLa-cell pellets: 0.000995
